Assay results reported in patent US12440479B2, “Prevention or treatment of chronic organ injury” (GEORG-AUGUST-UNIVERSITAET GOETTINGEN, STIFTUNG …, priority 2018, dated 2025).

How the values were obtained:
[1] = test system: proximal ALK3 promoter (CACGTG E-box motif); assay: ALK3 ChIP-PCR after Arnt pull-down; type: cell-based, mouse; conditions: TECs upon exposure to FK506
Experimental: DNA and protein interaction was performed with the OneDay ChIP Kit (Diagenode, Seraing, Belgium) according to the manufacturer's instructions. 2×10^7 MCT cells have been used for each ChIP reaction. Cell lysates were sonicated using an ultrasonic processor S-4000 (Misonix, Farmingdale, USA). Immunoprecipitation was performed with a ChIP grade antibody against Yy1 (ab12132, Abcam Biochemicals, Cambridge, UK) and Arnt (3718, Cell Signaling, Danvers, USA). Enriched DNA was analyzed by qRT-PCR with EpiTect ChIP qPCR primers for genomic Arnt (Qiagen, Hilden, Germany), oligonucleotide sequences for genomic Alk3 are listed in Table 10.

[2] = test system: intrarenal ARNT and ALK3 transcription; conditions: GSE1563; regimens including FK506 compared to CsA; cited from earlier work
[3] = test system: chronically injured hearts; assay: Angiotensin II (AT II)-induced cardiac hypertrophy and fibrosis; type: in vivo, mice; conditions: heart, 10 mg/kg subcutaneously per day starting one day prior
Experimental: Eight to twelve weeks old C57BL/6 mice were anesthetized with isoflurane inhalation (2-3%), analgesia was performed by subcutaneous injection of 0.1 mg/kg body weight Buprenorphine per day. Osmotic minipumps (Alzet, Cupertino, USA) were loaded with AT II to continuously deliver 1.44 μg/kg body weight per day and implanted subcutaneously (123). Mice were sacrificed 14 days after implantation for further analyses. Mice were injected subcutaneously with 10 mg/kg body weight per day GPI-1046 (Santa Cruz Biotechnology, Dallas, USA) in DMSO once daily starting one day prior of surgery, control mice received equivalent volume of vehicle DMSO. […] For morphometric analysis of interstitial fibrosis, fibrotic areas were assessed by using cellSens (Olympus, Tokyo, Japan) software. Ten visual fields were selected randomly for each MTS stained section at 200× magnification and the relative interstitial fibrotic area was evaluated by using a 10 mm2 graticule. Tubular damage was analysed after PAS stain and graded according to a semi-quantitative score of 0 to 3 (0: normal, 1: mild, 2: moderate, 3: severe) at 400× magnification in a total number of 100 tubules per section (158). […] Cardiomyocyte diameters were determined from 100 random fibers in PAS-stained heart sections using cellSens (Olympus, Tokyo, Japan) software.

## C=CC[C@@H]1/C=C(\C)C[C@H](C)C[C@H](OC)[C@H]2O[C@@](O)(C(=O)C(=O)N3CCCC[C@H]3C(=O)O[C@H](/C(C)=C/[C@@H]3CC[C@@H](O)[C@H](OC)C3)[C@H](C)[C@@H](O)CC1=O)[C@H](C)C[C@@H]2OC [FK506, tacrolimus]
[1]
  ARNT binding to CACGTG motif within the proximal ALK3 promoter: significantly increased
[2]
  intrarenal ARNT and ALK3 transcription: enhanced

## CCC(C)(C)C(=O)C(=O)N1CCC[C@H]1C(=O)OCCCc1cccnc1 [GPI-1046, 3-(3-pyridyl)-1-propyl-(2S)-1-(3,3-dimethyl-1,2-dioxopentyl)-2-pyrrolidinedine carboxylate]
[3]
  ALK3-dependent canonical BMP signaling responses: equally effective
  protection from fibrogenesis: equally effective
